These results are taken from patent publication US7282492B2, “Insecticidal composition having improved storage stability” (priority 2001, dated 2007).

The structures appear in SMILES notation.

The series is described as follows: Storage stability of Dimethoate emulsifiable concentrates Ia, Ib, Ic (Example 1). Type of series: physicochemical. The following applies: stored 14 days at 54° C.; Table 1. How it is done:
Three emulsifiable concentrates (Ia, Ib and Ic) containing. Dimethoate were prepared by mixing the components listed below in the amounts stated. Said amounts are parts by weight.
The formulations Ia and Ib are not according to the invention but serve as comparison examples to formulation Ic (according to the invention).
The formulations were stored at different temperatures for various periods of time, whereupon the pro rata share of Dimethoate degradation was determined.

As for `O=C1C=CC(=O)O1` [maleic anhydride], the “Stabilization of Dimethoate relative to acetic anhydride” value is “twice as effectively”.
